Here are results for twelve compounds from PMC6270234, “Chemical Composition of Aspidosperma ulei Markgr. and Antiplasmodial Activity of Selected Indole Alkaloids” (Molecules, 2013).

Where “and” joins values, the source holds several entries; their conditions need not be identical. Identical values can stand only once. Entries after “also recorded” stand apart in the source; their conditions may differ. Like-named read-outs stand apart in the source and are kept apart here.

Series [1] has as its system multi-drug resistant K1 strain of Plasmodium falciparum. Nature of the series: In vitro antiplasmodial assay, inhibition of growth of parasites by optical microscopy. Format: cell-based. Particulars: for IC50: Plasmodium falciparum, K1, 48 h, read-out: IC50 ± SD; for Result: activity class from IC50 in µM, K1 strain. The method, then: The in vitro antiplasmodial test was performed as previously described. […] Sample solutions were applied to the wells of 96-well test plates containing red blood cell suspension having initial parasitemia of 1.5%. […] After incubation, the contents of the wells were evaluated by optical microscopy. The inhibition of the growth of parasites (IGP%) was evaluated as a percentage by comparison with controls:
IGP% = 100 × [1 – (parasitemia with sample/parasitemia of untreated controls)]

The subject of series [2] is NIH3T3 murine fibroblasts. The series is described as follows: Cytotoxicity test using the Alamar Blue assay. It counts as cell-based. To be noted: Mus musculus, 48 h, tested at 50 µg/mL, read-out: IC50 (toxicity to fibroblasts). The method, then:
The NHI-3T3 cell line of mouse fibroblasts was grown in DMEN medium supplemented with 10% fetal bovine serum, 2 mM glutamine, 100 µg/mL streptomycin and 100 U/mL penicillin, and incubated at 37 °C with a 5% atmosphere of CO2. For assays, the cells were plated in 96-well plates (10^4 cells per well) and the Alamar Blue^TM assay was performed using previously described procedures. Briefly, after 24 h, the compounds were dissolved in DMSO and added to each well to give final concentrations of 50 µg/mL. Plates were incubated for 48 h. Control groups had final well concentrations of 0.1% DMSO. Two hours before the end of the incubations, 10 µL of Alamar Blue^TM was added to each well. The fluorescent signal was monitored with a multiplate reader using 530–560 nm excitation and 590 nm emission wavelengths.

In series [3] the test system is chloroquine-resistant Fc M29-Cameroon strain of Plasmodium falciparum. More on the design: method as in PMID 21612900. Particulars: cited from earlier work.
Series [4] deals with K1 strain of P. falciparum. More on the design: method as in PMID 17568942, PMID 23092722. Particulars: cited from earlier work.
Another series has as its system Plasmodium berghei. More on the design: method as in PMID 23092722. Particulars: Plasmodium berghei-infected mice, daily doses of 50-100 mg/kg/day, 4-day suppressive test; cited from earlier work.
The conditions of series [5]: cited from earlier work.
Setting [6] is: P. falciparum K1 strain, 48 h incubation.

For orientation: IC50 means the concentration that gives 50% inhibition. By melting point is commonly meant the temperature, or range, at which the solid turns liquid. `COC(=O)[C@@H]1[C@H]2Cc3c4[nH]c5ccccc5c4cc[n+]3C[C@@H]2CC[C@H]1O` [Compound 3, 3,4,5,6-tetradehydro-β-yohimbine] returned a melting point of 260 to 264 °C. Also, the 50% inhibitory concentration (IC50) in series [1] (setting [6]) was determined as 39.9 ± 7.7 µM. Also, the Result result in series [1] is “I (IC50 > 20.0 µM = inactive (I))”. Besides, the IC50 in series [2] was over 50 µg/mL.

`CC=C1C[N+]23CCC1CC21Nc2ccccc2C1(O)CC3` (stereo not shown) [Compound 4, 19E-hunteracine] displayed a melting point of 343 to 343.3 °C. Further, in series [1] (setting [6]), the IC50 is over 176 µM. Also, in series [1], the Result result was “I (IC50 > 20.0 µM = inactive (I))”. The IC50 in series [2] was over 50 µg/mL.

Turning to `COC(=O)[C@@H]1[C@H]2CC3c4[nH]c5ccccc5c4CCN3C[C@@H]2CC[C@H]1O` (stereo partly drawn) [Compound 5, β-yohimbine], the IC50 in series [3] is over 1 µg/mL.

`COC(=O)[C@@H]1[C@H]2C[C@H]3c4[nH]c5ccccc5c4CCN3C[C@@H]2CC[C@@H]1O` [Compound 6, yohimbine]: the IC50 in series [3] was over 1 µg/mL.

With `Cc1nccc2c(C)c3[nH]c4ccccc4c3cc12` [Compound 8, olivacine], the “in vitro antiplasmodial activity (in words)” value in series [4] is given as “significant in vitro antiplasmodial activity”. Further, in the series with Plasmodium berghei, the “in vivo antimalarial activity (in words)” value was “high in vivo antimalarial activity”. The “cytotoxicity (in words)” value in series [5] is on record as “low cytotoxicity”.

The compound `CCC1C2CCN(C)C1c1c([nH]c3ccccc13)C2=O` (stereo not drawn) [Compound 11, 20-epi-dasycarpidone] had a melting point of 164.3 to 165.3 °C. Further, the “in vitro antiplasmodial activity (in words)” value in series [1] (P. falciparum K1 strain) was “active; also recorded: moderate inhibitory activity”. In addition, the IC50 in series [1] (setting [6]) is 4.5 µg/mL and 16.7 µM. Also, the Result result in series [1] was “MA (IC50 5–20 µM = moderately active (MA))”. In addition, the IC50 in series [2] was over 50 µg/mL.

As to `C/C=C1\CN2CCc3c([nH]c4ccccc34)CC1CC2` (stereo not shown) [Compound 12, 20(E)-nor-subincanadine E], the values for the 50% inhibitory concentration (IC50) in series [1] (setting [6]) and in series [2] were 54.3 ± 10.5 µM and over 50 µg/mL, respectively. Besides, the Result entry in series [1] is “I (IC50 > 20.0 µM = inactive (I))”.

As to `CC(=O)N1c2c(O)cccc2C23CC[N+]4=C2C(CC(=O)O)(CCC4)CCC13` (stereo not shown) [Compound 13, 12-hydroxy-N-acetyl-21(N)-dehydroplumeran-18-oic acid], the values for the IC50 in series [1] (setting [6]) and in series [2] were over 135 µM and over 50 µg/mL, respectively. The Result result in series [1] is “I (IC50 > 20.0 µM = inactive (I))”.

For `CC[C@@]12CCCN3CC[C@]4(c5ccc(OC)c(O)c5N(C(C)=O)[C@@H]4CC1)[C@H]32` [aspidocarpine], the “in vitro antiplasmodial activity (in words)” value in series [4] is on record as “significant in vitro antiplasmodial activity”.

With `CCN(CC)CCCC(C)Nc1ccnc2cc(Cl)ccc12` (stereo not shown) [chloroquine diphosphate, reference compound], in series [1], the IC50 was 0.17 µg/mL and 330 nM; the Result result is “A (0.1 < IC50 < 5 µM = active (A))”.

For the compound `Cc1c2ccncc2c(C)c2c1[nH]c1ccccc12` [ellipticine, reference compound], in series [4], the “in vitro antiplasmodial activity (in words)” value was “significant in vitro antiplasmodial activity”. Further, the “in vivo antimalarial activity (in words)” value in the series with Plasmodium berghei is recorded as “high in vivo antimalarial activity”. Also, in series [5], the “cytotoxicity (in words)” value was “low cytotoxicity”.

Regarding `C=C[C@H]1C[N@@]2CC[C@H]1C[C@H]2[C@H](O)c1ccnc2ccc(OC)cc12` [quinine sulphate, reference compound], in series [1] (setting [6]), the IC50 is 0.12 µg/mL and 300 nM.
